# Where two headings read alike, the source gives them in different places.
# Target: T1, ASIC1a (Homo sapiens, UniProt P78348)
# T1 sequence (P78348 1-528): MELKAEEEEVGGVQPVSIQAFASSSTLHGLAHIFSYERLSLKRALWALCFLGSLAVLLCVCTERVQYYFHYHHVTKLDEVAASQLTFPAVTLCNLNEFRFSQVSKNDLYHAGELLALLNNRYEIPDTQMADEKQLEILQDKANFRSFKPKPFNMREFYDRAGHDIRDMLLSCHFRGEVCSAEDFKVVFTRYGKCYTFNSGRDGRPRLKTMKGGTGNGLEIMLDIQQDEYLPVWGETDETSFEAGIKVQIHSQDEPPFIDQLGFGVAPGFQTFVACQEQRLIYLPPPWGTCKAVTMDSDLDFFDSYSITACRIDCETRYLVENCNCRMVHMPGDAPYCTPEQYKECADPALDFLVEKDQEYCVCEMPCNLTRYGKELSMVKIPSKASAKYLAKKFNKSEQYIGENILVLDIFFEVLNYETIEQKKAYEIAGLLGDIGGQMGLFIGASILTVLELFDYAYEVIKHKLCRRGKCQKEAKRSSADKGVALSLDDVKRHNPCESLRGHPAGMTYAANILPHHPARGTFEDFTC
# Assay: Whole cell patch clamp in HEK293 cells transfected with hASIC1a
# Format: cell-based
# Set-up: expressed in transfected cells; host or cells: Xenopus laevis oocytes (nuclear microinjection of expression vector such as pcDNA3)
# Procedure: Another example of an in vitro assessment method consists of using mammalian heterologous expression systems, which are known to the skilled in the art, and include a variety of mammalian cell lines such as COS, HEK, e.g., HEK293 and/or CHO, cells. Cell lines are transfected with gated ion channel(s) and used to perform electrophysiology as follows:
# All experiments are performed at room temperature (20-25° C.) in voltage clamp using conventional whole cell patch clamp methods (Neher, E., et al. (1978) Pfluegers Arch 375:219-228).
# The amplifier used is the EPC-9 (HEKA-electronics, Lambrect, Germany) run by a Macintosh G3 computer via an ITC-16 interface. Experimental conditions are set with the Pulse-software accompanying the amplifier. […]
# Coverslips with the cells are transferred to a 15 μl experimental chamber mounted on the stage of an inverted microscope (IMT-2, Olympus) supplied with Nomarski optics. […] The cells are held at a holding voltage of −60 mV and at the start of each experiment the current is continuously measured for 45 s to ensure a stable baseline. […] Current amplitudes are measured at the peak of the responses, and effect of the compounds is calculated as the amplitude at compound equilibrium divided by the amplitude of the current evoked by the pulse just before the compound is included. […]
Structure (SMILES),IC50 [µM],"IC50 (HEK293 cells, whole cell patch clamp, six point dose-response, read-out: IC50, inhibition of acid-induced hASIC1a activity) [µM]"
"CN1CCc2c(-c3ccccc3)cc(C#N)c(N)c2C1 [Compound 203, 8-Amino-2-methyl-5-phenyl-1,2,3,4-tetrahydro-isoquinoline-7-carbonitrile]",7.5,
"COc1ccc(F)cc1-c1cc(C#N)c(N)c2c1CCN(C)C2 [Compound 206, 8-Amino-5-(5-fluoro-2-methoxy-phenyl)-2-methyl-1,2,3,4-tetrahydro-isoquinoline-7-carbonitrile]",,28

# From patent US20080004272A1, “Compositions and methods for modulating gated ion channels” (PainCeptor Pharma Corporation, priority 2006, published 2008)
